We go through 2 molecules from article PMC8691714 (Cancer Research Communications, 2021).

One series concerns TMD8 cells. Description: MTT viability assay, TMD8 cells, 72 hours. It counts as cell-based, human. The protocol: Cell viability was assessed after 72 hours of incubation.
Details of series [1]: method as in earlier work. The note with it: PBPK model parameter, ref [17, 18] and Drugbank, cited from earlier work.
On the set-up of series [2]: method as in earlier work. The note with it: PBPK model parameter, ref [17, 18] and Drugbank, cited from earlier work. This is another data set of the same source.
The test system of the next series is BTK. Description: Immunoblotting of BTK signaling in primary CLL cells. The class given is cell-based, human. The note with it: ibrutinib 1 μmol/L with cobicistat 1, 10 μmol/L. On the procedure: Blood was drawn from patients with newly diagnosed, untreated CLL after receipt of written informed consent under a protocol approved by the Institutional Review Board of The Ohio State University (Columbus, OH) in accordance with the Declaration of Helsinki. B cells were isolated from whole blood using Rosette-Sep B (StemCell Technologies). Primary CLL cells were cultured in RPMI1640 medium supplemented with 10% FBS, 100 U/mL penicillin, 100 μg/mL streptomycin, and 2 mmol/L […]. […] After 1 hour, the cells were pelleted and resuspended in fresh media. For experiments with extended drug exposure, DMSO and cobicistat were added again after washout.
After 15 minutes of stimulation, cell lysates were collected and analyzed by SDS-PAGE. Protein was transferred to nitrocellulose and blots were probed with primary antibodies and horseradish peroxidase (HRP)-conjugated secondary antibodies. Blots were imaged using WesternBright chemiluminescent substrate (Advansta) on an X-ray film. Phosphorylated proteins were analyzed first, then antibodies were removed using Western Blot Stripping Buffer (Thermo Fisher Scientific) before analyzing total protein. Membranes were stripped after imaging total proteins before analyzing loading control. […] Loading controls were assessed for each membrane and are presented with corresponding proteins analyzed on the same membrane.

Details of series [3]: method as in earlier work. Particulars: PBPK model parameter, ref [17, 18] and Drugbank, cited from earlier work. The source holds these as a separate data set.

Molecules are shown by their SMILES.

A word on the Vss: it is a proportionality between amount in the body and measured concentration, not a real space. What is called pKa is the pH at which an ionisable group is half protonated. With `CC(C)c1nc(CN(C)C(=O)N[C@@H](CCN2CCOCC2)C(=O)N[C@H](CC[C@H](Cc2ccccc2)NC(=O)OCc2cncs2)Cc2ccccc2)cs1` [Cobicistat], the “influence on the antileukemic activity of ibrutinib” value in the series on TMD8 cells (cobicistat 0.1, 1 or 10 μmol/L) is listed as “neither ketoconazole nor cobicistat negatively influenced”. Also, the Ka result in series [1] is reported as “Ka (1/h)= 0.29”. For the same molecule, in series [1] (oral clearance), the Clpo result was “Clpo (L/h) : 14”. In series [1] (steady-state volume of distribution), the Vss is 0.46 L/kg. For the same molecule, the pKa in series [2] (acid dissociation constant) is on record as 6.69. Further, the “Log Po:w” value in series [2] (octanol/water partition coefficient) was 4.36. Also, the “impact on ibrutinib's ability to suppress BTK signaling” value with BTK is on record as “did not impact”. For the same molecule, the B/P ratio in series [3] (blood to plasma ratio) is given as 0.55. Besides, the “fu, plasma” value in series [3] (unbound drug in the plasma) was 0.020.

With `CC(=O)N1CCN(c2ccc(OCC3COC(Cn4ccnc4)(c4ccc(Cl)cc4Cl)O3)cc2)CC1` (stereo not shown) [Ketoconazole], in the series with TMD8 cells (ketoconazole 0.1, 1 or 10 μmol/L), the “influence on the antileukemic activity of ibrutinib” value was “neither ketoconazole nor cobicistat negatively influenced”.
